Entries after “also recorded” stand apart in the source; their conditions may differ.
Experiments:
[1] = Repeated-dose oral gavage toxicity in rats, up to 7 days; conditions: rat, in vivo
Description: Inventors also evaluate the toxicity profile following oral gavage administration of 6J1 at dose levels of 0 (vehicle), 150, 450, and 1000 mg/kg once daily for up to 7 consecutive days to rats. Rats of the 300 mg/kg group are tested separately from other groups (showing higher initial weight than other groups), and rats of 450 and 1000 mg/kg groups are terminated on day 4 due to several clinical findings.

[2] = system: PD-L1; assay: Western blot of PD-L1 in total cell lysates and exosomes of HeLa cells; format: cell-based; conditions: for 6J1-induced exosomal PD-L1 secretion: 1 μM, 24 h
Description: PD-L1 has been previously shown to be secreted outside the cell through exosomes. HeLa cells are plated on coverslips in 24-well plates and stained with the anti-PD-L1 antibody on ice for 1 h. At the indicated times after being incubated at a warm medium at 37° C., cells are fixed and stained with antibodies against CD63 or Rab27a. […] Cells are treated with or without ionomycin (1 μM) for 48 h. The supernatant is collected and subjected to western blot analysis. […] Since the amphisome, which is formed by the fusion of the autophagosome with the MVB/late endosome, has been implicated in extracellular vesicles secretion, and PD-L1 is found to be associated with LC3B during PD-L1 trafficking (FIG. 2a), inventors examine whether the autophagosome formation is involved in exosomal PD-L1 secretion. Thus, inventors knock out the expression of Rab27A, LC3B or ATG4B in HeLa cells and collect their supernatant respectively for western blot analysis.
Furthermore, HeLa cells are treated with or without Bafilomycin A1 (10 nM), or Torin 1 (100 nM) for 48 h. The cell lysates and supernatant are collected for western blot analysis. […] In contrast, Torin1, an autophagy activator, has little effect on total and exosomal PD-L1 levels (FIG. 2g). […] On the other hand, blockage on the fusion between lysosomes and late endosomes or autophagosomes may induce PD-L1 secretion via exosomes.
It has previously been shown that interfering with endosomal trafficking promotes exosome secretion. Moreover, PD-L1 has been reported to be enriched in exosomes and secreted outside the cell. Thus, inventors speculate that 6J1 may induce the secretion of the PD-L1 trapped in the endosomal compartments via exosomes. To determine whether 6J1 may induce the secretion of PD-L1 via exosomes, HeLa cells are treated with or without 6J1 (1 μM) for 24 h. The supernatant is collected. Inventors purify the exosomes from the supernatant of HeLa cells by sequential centrifugation. The concentration of extracellular vesicle is determined using a Nanosight nanoparticle analyzer. And HeLa cells are treated with or without 6J1 (1 μM) for 48 h. The cell and supernatant are collected for Western Blot analysis. […] Moreover, the activity of Rab27a in HeLa cells treated with or without 6J1 (1 μM) is examined with a GST-SHD pulldown assay.
Moreover, ATG5- or LC3-knockout HeLa cells are treated with or without 6J1 (1 μM) for 24 h. The supernatant is collected, and the concentration of the extracellular vesicle is determined using a Nanosight nanoparticle analyzer. The exosomes are also collected and subjected to western blot analysis of the EVs marker and PD-L1 in FIG. 7a. The live cells are also labeled with an anti-PD-L1 antibody in FIG. 7b and subjected to flow cytometry analysis in FIG. 7c. […] In addition, inventors assess whether other autophagy-related genes, e.g., ATG4B, ATG7, Beclin1, and Vps34 are involved in 6J1-mediated exosomal PD-L1 secretion. ATG4B-, ATG7-, Beclin1-, or VPS34-knockout HeLa cells are treated with or without 6J1 (1 μM) for 24 h. The supernatant is collected, and the concentration of extracellular vesicle is determined using a Nanosight nanoparticle analyzer. The exosomes are also collected and subjected to western blot analysis of the EVs marker and PD-L1 in FIG. 7d. The live cells are also labeled with an anti-PD-L1 antibody and subjected to flow cytometry analysis in FIG. 7e.

[3] = system: LC3 and p62; assay: Autophagy readouts: LC3/p62 western blot and GFP-RFP-LC3 puncta in HeLa cells; format: cell-based; conditions: 6 h
Description: HeLa cells are treated with or without 6J1. After 6 h, cells are collected for western blot analysis of LC3 and p62. […] In addition, ATG5-knockout HeLa cells are transfected with PD-L1-GFP and LC3-RFP, and then treated with or without 6J1 (1 μM) for 24 h. Cells are fixed and imaged. […] Furthermore, LC3B-knockout HeLa cells are transfected with PD-L1-GFP, and then treated with or without 6J1 (1 μM) for 24 h. Cells are fixed and stained with antibodies against Rab5 (FIG. 6d) or Rab27a (FIG. 6e).

[4] = system: EGFR; assay: EGFR degradation assay (EGF-488); format: cell-based; conditions: HeLa cells, 6J1 1 μM 3 h, EGF-488 2 μg/ml, 2 h of EGF treatment
Description: Furthermore, HeLa cells are pretreated with DMSO or 6J1 (1 μM) for 3 h. Then, cells are incubated with EGF-488 (2 μg/ml) on ice for 1 h followed by incubating in the complete medium at 37° C. in a CO2 incubator. Cells are fixed at the indicated times and imaged.

[5] = system: 4T1 mouse mammary carcinoma; assay: Orthotopic 4T1 mammary carcinoma model in syngeneic Balb/c mice; format: in vivo; conditions: oral gavage, daily
Description: To determine whether 6J1 can promote anti-cancer immunity in vivo, 4T1 cells are orthotopically transplanted into syngeneic Balb/c mice. The mice are randomly divided into three groups (n=7 per group) and treated with either buffer or 6J1 (15 or 30 mg/kg, daily) via oral gavage. Tumor volume and body weight of mice are measured at the indicated time point. After the tumor reaches the indicated size, the mice are treated with 6J1 (via oral gavage) at different doses (15 mg/kg or 30 mg/kg) daily for 4 weeks. […] The effective dosages of 6J1 in vivo can range from about 0.1 mg/kg to about 300 mg/kg; or from about 1 mg/kg to about 200 mg/kg; or from about 3 mg/kg to about 100 mg/kg, taking into account, for example, activity and toxicity

[6] = GFP-RFP-LC3-expressing HeLa cells, 1 μM
[7] = isolated tumor-infiltrating lymphocytes

OCCOCCN(c1ccccc1)c1nc(N/N=C/c2cccc(I)c2)nc(N2CCOCC2)n1 [Compound 6J1]
findings at 450 and 1000 mg/kg [1]: severe clinical findings | therapeutic window in experimental animals [1]: at least 10 fold | clinical signs at 300 mg/kg ([1]; po, 300 mg/kg): soft feces, hunched posture, and reduced feces | finding at 1000 mg/kg ([1]; po, 1000 mg/kg): mortality | dose levels not tolerated on repeated daily dosing ([1]; po, 4 days): ≥ 450 mg/kg | repeated daily dosing considered tolerated up to ([1]; po, 7 days): up to 300 mg/kg | 6J1-induced exosomal PD-L1 secretion ([2]; ATG4B-, ATG7-, Beclin1- or VPS34-knockout HeLa cells): fails to abolish | 6J1-induced exosomal PD-L1 secretion ([2]; ATG5- or LC3B-knockout HeLa cells): Neither ATG5 nor LC3B knockout impairs | exosomal PD-L1 level ([2]; HeLa cells, 48 h, ionomycin 1 μM, Bafilomycin A1 10 nM, Torin 1 100 nM, 6J1 1 μM): increases PD-L1 level in exosomes | formation of yellow LC3B puncta [3, 6]: significantly induces the formation of yellow LC3B puncta | red-only LC3B puncta [3, 6]: no red-only LC3B puncta are observed | level of LC3B-II and P62 ([3]; HeLa cells, western blot): markedly induced an increase in the level of LC3B-II and P62 | EGFR degradation [4]: blocks the EGFR degradation | cell surface expression of PD-L1 in the primary tumors ([5]; 30 mg/kg): down-regulated | tumor growth ([5]; 30 mg/kg, 4 weeks): significantly decreases the tumor growth | body weight of mice ([5]; 15 or 30 mg/kg, 4 weeks): does not change the body weight of mice | expression of IFN-γ in CD8+ T cells [5, 7]: little effect | tumor-infiltrating CD8+ T cell populations [5, 7]: significantly increases the tumor infiltrating CD8+ T cell populations; also recorded: significantly increases the tumor-infiltrating CD8+ T cell populations

From patent US11986482B2, “Method of promoting antitumor or anti-cancer immunity” (City University of Hong Kong, priority 2021, dated 2024)
